Patent US20140234318A1, “TUMOR SPECIFIC OLIGOSACCHARIDE EPITOPES AND USE THEREOF” (GLYKOS FINLAND OY, priority 2002, published 2014)

How the values were obtained:
Helicobacter pylori [1] = details: cited from earlier work
[2] = test system: IgG antibodies against specific carbohydrate epitopes in serum of cancer patients; experiment: ELISA of serum IgG antibodies binding to synthetic glycoconjugates; parameters: species or system human; details: for serum antibody levels against the epitope, summary in words: IgG and IgM, group of four cancer patients
Source text: (§1) A group of four people with various stages of diagnosed cancer of the gastrointestinal tract or the ovary, was studied by analyzing serum samples for their concentrations of IgG and IgM antibodies against specific carbohydrate epitopes. The assay consisted of binding of specific antibodies from serum to synthetic glycoconjugates, washing, and then detecting the specifically bound antibody levels in ELISA with enzyme-labelled anti-human IgG or anti-human IgM secondary antibodies and quantitation of specific reaction products.

[3] = test system: IgM antibodies against specific carbohydrate epitopes in serum of cancer patients; experiment: ELISA of serum IgM antibodies binding to synthetic glycoconjugates; parameters: species or system human
Source text: as §1

[4] = test system: endogenous galactosyltransferase activity of human serum; experiment: Activation of endogenous galactosyltransferase activity of human serum; type: biochemical
Procedure: Fresh human blood sample was collected from blood group B-individual (5 ml). After clotting for 30 min it was centrifuged at +4° C., 2000 rpm for 25 minutes, and the serum was collected for experiments (2 ml, stored on ice).
Reactions were performed with 50 nmol of acceptor saccharide (GlcNAcβ1-3Galβ1-4GlcNAc, from enzymatic synthesis, purified by ion exchange and gel filtration, characterized by NMR and mass spectrometry), 5 nmol UDP-[^14C]Gal (mixture of nonlabelled and radioactive, radioactivity was 100 000 cpm) and 20 μl of fresh human serum (total volume was 20 μl). Reaction conditions were varied by adding cations and bovine milk β1,4-galactosyltransferase (β1,4GalT).

Helicobacter pylori [5] = experiment: Receptor activity of oligosaccharides for Helicobacter pylori; type: binding; details: relative to the non-galactosylated receptor
Procedure: The structure is changed to 10-fold weaker receptor structure Galβ4GlcNAcβ3Galβ4GlcNAcβ3Galβ4Glc by incubating it with UDP-Gal and β4-galactosyltransferase from bovine milk. b) The oligosaccharide receptor GlcNAcβ3Galβ4GlcNAcβ3Galβ4Glc is incubated with GDP-Fuc and soluble human fucosyltransferase VI corresponding to major the fucosyltransferase from human milk. MALDI-TOF mass spectrometric analysis reveled a major peak corresponding to GlcNAcβ3Galβ4(Fucα3)GlcNAcβ3Galβ4Glc, the structure is confirmed by NMR-spectroscopy. c) Erythrocytes from a patient suffering from glycosylation deficiency causing high levels of terminal GlcNAc-structures including GlcNAcβ3Galβ4GlcβCer are incubated with radiolabeled UDP-Gal and βgalactosyltransferase. Transfer of labeled galactose on the cell surface is observed. The galactosylation of the cells reduces the reactivity of the cells with anti-GlcNAc-antibodies.

[6] = test system: recombinant β1,4-galactosyltransferase similar to the enzyme described in (Ramakrishnan and Qasba, 2002); experiment: Transfer of modified galactosamine from UDP-GalN conjugates to terminal GlcNAc acceptor by modified galactosyltransferase; type: biochemical, bovine; details: MALDI-TOF MS of the product
[7] = test system: terminal GlcNAc residues in lung adenocarcinoma tissue sections; experiment: Labeling of terminal GlcNAc residues in tissue sections with UDP-GalN-biotin; parameters: species or system human; details: streptavin-FITC, fluorescence microscopy
Procedure: In a typical procedure, an oligosaccharide acceptor such as GlcNAcβ1-3Galβ1-4GlcNAcβ1-3Galβ1-4Glc, or deparaffinised formalin-fixed paraffin-embedded tissue sections, are incubated at + 37° C. with a reaction mixture containing 10 mM UDP-GalN-biotin, 160 U/l enzyme, 100 mM Tris-HCl, and 20 mM MnCl2. After washing, the biotin groups are visualised by standard methods in the art, using streptavidin or avidin coupled reagents, for example streptavidin-FITC.

Row | antibody signal intensity from which the assay background has been subtracted ([2]; Patient 1, IgG) | antibody signal intensity from which the assay background has been subtracted ([2]; Patient 2, IgG) | antibody signal intensity from which the assay background has been subtracted ([2]; Patient 3, IgG) | antibody signal intensity from which the assay background has been subtracted ([2]; Patient 4, IgG) | antibody signal intensity from which the assay background has been subtracted ([3]; Patient 1, IgM) | antibody signal intensity from which the assay background has been subtracted ([3]; Patient 2, IgM) | antibody signal intensity from which the assay background has been subtracted ([3]; Patient 3, IgM) | antibody signal intensity from which the assay background has been subtracted ([3]; Patient 4, IgM) | Molecule | serum antibody levels against the epitope, summary in words [2] | other results
1 | 0.017 | 0.094 | 0 | 0 | 0.125 | 0.041 | 0.011 | 0.056 | GlcNAcβ1-3GalNAcα-O—CH2—R [Saccharide 5] | identical pattern of antibody type response | 
2 | 0 | 0.082 | 0.013 | 0 | 0.159 | 0.029 | 0.122 | 0 | GlcNAcβ-O—CH2—R [Saccharide 4] | Two patients showed elevated serum levels of mainly IgM and one patient mainly IgG | 

Continued, molecule first:

Row | Molecule | antibody signal intensity from which the assay background has been subtracted ([2]; Patient 1, IgG) | antibody signal intensity from which the assay background has been subtracted ([2]; Patient 2, IgG) | antibody signal intensity from which the assay background has been subtracted ([2]; Patient 3, IgG) | antibody signal intensity from which the assay background has been subtracted ([2]; Patient 4, IgG) | antibody signal intensity from which the assay background has been subtracted ([3]; Patient 1, IgM) | antibody signal intensity from which the assay background has been subtracted ([3]; Patient 2, IgM) | antibody signal intensity from which the assay background has been subtracted ([3]; Patient 3, IgM) | antibody signal intensity from which the assay background has been subtracted ([3]; Patient 4, IgM) | serum antibody levels against the epitope, summary in words [2] | other results
3 | CC(=O)N[C@H]1[C@H](O[C@H]2[C@@H](O)[C@@H](CO)O[C@@H](O[C@H]3[C@H](O)[C@@H](O)C(O)O[C@@H]3CO)[C@@H]2O)O[C@H](CO)[C@@H](O[C@@H]2O[C@H](CO)[C@H](O)[C@@H](O[C@@H]3O[C@H](CO)[C@@H](O)[C@H](O)[C@H]3NC(C)=O)[C@H]2O)[C@@H]1O (stereo partly shown) [GlcNAcβ3Galβ4GlcNAcβ3Galβ4Glc] |  |  |  |  |  |  |  |  |  | receptor for Helicobacter pylori (Helicobacter pylori [1]): receptor for the gastric pathogen Helicobacter pylori
4 | GlcNAcβ1-6(Galβ1-3)GalNAcα-O—CH2—R [Saccharide 3] | 0.039 | 0.078 | 0 | 0 | 0.091 | 0.008 | 0.068 | 0.042 | elevated in the whole patient group | 
5 | [Cl][Mn][Cl] [MnCl2] |  |  |  |  |  |  |  |  |  | Product ([4]; 0.2 mM MnCl2, no external β1,4GalT): 457 cpm; Product ([4]; 1 mM MnCl2, no external β1,4GalT): 1073 cpm; Product ([4]; 5 mM MnCl2, no external β1,4GalT): 566 cpm
6 | GlcNAcβ1-2Manα1-6(GlcNAcβ1-2Manα1-3)Manβ1-4GlcNAcβ1-4(Fucα1-6)GlcNAcβ-N-Asn-R [Saccharide 1] | 0 | 0 | 0.006 | 0 | 0 | 0 | 0.01 | 0 | elevated in one patient | 
7 | CC(=O)N[C@H]1[C@H](O[C@H]2[C@@H](O)[C@@H](CO)O[C@@H](O[C@H]3[C@H](O)[C@@H](NC(C)=O)[C@H](O[C@H]4[C@@H](O)[C@@H](CO)O[C@@H](O[C@H]5[C@H](O)[C@@H](O)C(O)O[C@@H]5CO)[C@@H]4O)O[C@@H]3CO)[C@@H]2O)O[C@H](CO)[C@@H](O[C@@H]2O[C@H](CO)[C@H](O)[C@H](O)[C@H]2O)[C@@H]1O (stereo partly shown) [Galβ4GlcNAcβ3Galβ4GlcNAcβ3Galβ4Glc] |  |  |  |  |  |  |  |  |  | receptor strength for Helicobacter pylori, weaker than GlcNAcβ3Galβ4GlcNAcβ3Galβ4Glc (Helicobacter pylori [5]): 10 fold
8 | uridine 5′-diphospho-N-(6-biotinamidohexanoyl)galactosamine [UDP-GalN-biotin] |  |  |  |  |  |  |  |  |  | transfer of the modified galactosamine residue to a terminal GlcNAc acceptor [6]: reacted; labeling of cancer cells in tissue sections [7]: cancer cells could be labeled
